The target in this experiment is T1, Prostaglandin E synthase (Homo sapiens, UniProt O14684).
T1 sequence (O14684 whole entry): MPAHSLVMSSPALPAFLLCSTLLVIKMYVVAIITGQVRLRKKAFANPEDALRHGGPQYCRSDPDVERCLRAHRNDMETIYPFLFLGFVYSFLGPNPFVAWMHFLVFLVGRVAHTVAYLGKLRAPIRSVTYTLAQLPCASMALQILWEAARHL
The experiment is described as follows: mPGES1 enzyme assay: mPGES1 was diluted with assay buffer and added into plate at 49 μL/well supplemented with 1 μL of compound (the final concentration of each compound at seven gradient concentrations was 10000 nM, 1000 nM, 100 nM, 10 nM, 1 nM, 0.1 nM and 0.01 nM). Each well was added with 3.8 μL of 20 μg/mL PGH precooled on ice after shaking for 30 seconds and incubated for 7 minutes on ice. Then, each well was added with 53.8 μL of 6 mg/mL SnCl2 to quench the reaction. The sample was diluted with dilute buffer at 1:400. 10 μl of diluted sample, 5 μL PGE2-d2 and 5 μL anti-PGE2 Cryptate were added to a black 384-well plate, and incubated at 4° C. overnight. HTRF was determined using Flexstation, and the IC50 of the compounds was obtained by data processing software. (In general: In TR-FRET formats the signal depends on donor and acceptor labels being close together.)

For `CCn1c(-c2ccc(F)cc2)cc2cc(NC(=O)c3cc(CNC(=O)C(C)(C)C)ccc3Br)ccc21`, 6.02 nM corresponded to half-maximal inhibition (IC50).

The values are drawn from ChEMBL document CHEMBL5725708, “Amide derivatives and pharmaceutically acceptable salts thereof, preparation method thereof and medicinal application thereof” (2018).
